Here are results for one compound from article PMC9847679, “The anti-breast cancer stem cell properties of gold(I)-non-steroidal anti-inflammatory drug complexes” (Chemical Science, 2022).

Each structure is given as a SMILES string.

The test system of series [1] is HEK 293 cells. Description: Monolayer cytotoxicity (MTT assay), HEK 293 cells. It counts as cell-based. To be noted: 72 h incubation. An excerpt:
(§1) Cell Lines and Cell Culture Conditions. The human mammary epithelial HMLER and HMLER-shEcad cell lines were kindly donated by Prof. R. A. Weinberg (Whitehead Institute, MIT). The human epithelial breast MCF10A, breast adenocarcinoma MDA-MB-231 and MDA-MB-468, murine epithelial breast 4T1, and embryonic kidney HEK 293 cell lines were acquired from American Type Culture Collection (ATCC, Manassas, VA, USA).
(§2) HMLER, HMLER-shEcad, and MCF10A cells were maintained in Mammary Epithelial Cell Growth Medium (MEGM) with supplements and growth factors (BPE, hydrocortisone, hEGF, insulin, and gentamicin/amphotericin-B). MDA-MB-231, MDA-MB-468, 4T1, and HEK 293 cells were maintained in Dulbecco's Modified Eagle's Medium (DMEM) supplemented with fetal bovine serum (10 %) and penicillin/streptomycin (1 %). The cells were grown at 310 K in a humidified atmosphere containing 5% CO2.
Monolayer Cytotoxicity Studies. Exponentially growing cells were seeded at a density of approximately 5 × 10^3 cells per well in 96-well flat-bottomed microplates and allowed to attach for 24 h prior to addition of compounds. […]
media. […] The optical density was measured at 550 nm using a 96-well multiscanner autoreader. Absorbance values were normalised to (DMSO-containing) control wells and plotted as concentration of test compound versus % cell viability. […]
On the technique in general: Tetrazolium dyes change colour on reduction, which living cells bring about.

The subject of series [2] is MDA-MB-231 cells. Description: Monolayer cytotoxicity (MTT assay), MDA-MB-231 cells. In kind it is cell-based, human. To be noted: 72 h incubation.
Source text: as §1, §2
(§3) Monolayer Cytotoxicity Studies. Exponentially growing cells were seeded at a density of approximately 5 × 10^3 cells per well in 96-well flat-bottomed microplates and allowed to attach for 24 h prior to addition of compounds. Various concentrations of the test compounds (0.0004-100 μM) were added and incubated for 72 h at 37 °C (total volume 200 μl). Stock solutions of the compounds were prepared as 10 mM DMSO solutions and diluted using cell […]
(§4) media. The final concentration of DMSO in each well was ≤1 %. […] The optical density was measured at 550 nm using a 96-well multiscanner autoreader. Absorbance values were normalised to (DMSO-containing) control wells and plotted as concentration of test compound versus % cell viability. […]
(§5) h, the fluorescence of the solutions was read at 590 nm (λex = 560 nm). […]
(§6) Cellular Uptake. […] The number of cells was counted at this stage, using a haemocytometer. […] All samples were diluted 17-fold with water and analysed using inductively coupled plasma mass spectrometry (ICP-MS, Thermo Scientific ICAP-Qc quadrupole ICP mass spectrometer). Gold levels are expressed as mass of Au (ng) per million cells. […]

In series [3] the test system is HMLER-shEcad cells. Description: Monolayer cytotoxicity (MTT assay), HMLER-shEcad cells. In kind it is cell-based, human. To be noted: 72 h incubation, MTT.
Source text: as §1, §2, §3
media. The final concentration of DMSO in each well was ≤1 %. After 72 h, 20 μl of MTT (4 mg mL-1 in PBS) was added to each well and the plates incubated for an additional 4 h at 37 °C. The media/MTT mixture was eliminated and DMSO (100 μl per well) was added to dissolve the formazan precipitates. The optical density was measured at 550 nm using a 96-well multiscanner autoreader. Absorbance values were normalised to (DMSO-containing) control wells and plotted as concentration of test compound versus % cell viability. IC50 values were interpolated from the resulting dose dependent curves. The reported IC50 values are the average of three independent experiments (n = 18). […]
After incubation for 16 […]
h, the fluorescence of the solutions was read at 590 nm (λex = 560 nm). Viable mammospheres reduce the amount of the oxidised TOX8 form (blue) and concurrently increase the amount of the fluorescent TOX8 intermediate (red), indicating the degree of mammosphere cytotoxicity caused by the test compound. […]
Cellular Uptake. To measure the cellular uptake of 1-3 about 1 million HMLER-shEcad cells were treated with 1-3 (0.25 μM) at 37 °C for 24 h. After incubation, the media was removed, the cells were washed with PBS (2 mL × 3) and harvested. The number of cells was counted at this stage, using a haemocytometer. This mitigates any cell death induced by 1-3 at the administered concentration and experimental cell loss. The cellular pellets were dissolved in 65% HNO3 (250 µL) overnight. A cellular pellet of HMLER-shEcad cells treated with 1 was also used to determine the gold content in the nuclear, cytoplasmic and membrane fractions. The Thermo Scientific NE-PER Nuclear and Cytoplasmic Extraction Kit was used to extract and separate the nuclear, cytoplasmic and membrane fractions. The fractions were dissolved in 65% HNO3 (250 µL final volume) overnight. All samples were diluted 17-fold with water and analysed using inductively coupled plasma mass spectrometry (ICP-MS, Thermo Scientific ICAP-Qc quadrupole ICP mass spectrometer). Gold levels are expressed as mass of Au (ng) per million cells. Results are presented as the mean of four determinations for each data point.
Intracellular ROS Assay. […]

The subject of series [4] is 4T1 cells. Description: Monolayer cytotoxicity (MTT assay), 4T1 cells. In kind it is cell-based, murine. To be noted: 72 h incubation.
Source text: as §1, §2, §3, §4, §5, §6

Series [5] in a line: Tissue biodistribution of gold. It counts as in vivo, BALB/c mice. The conditions noted are these: 4T1-bearing mice after 16 days treatment, 10 mg kg−1 IP. As to the method: tumour-size and body-weight measurements were performed three days a week, and the mice were euthanised after 16 days (n = 5 for 1 and n = 5 for vehicle control).
Tissue biodistribution of 1. Following the treatment o f mice with 1 for 16 days, each tissue (heart, lung, liver, spleen, kidney, and tumo ur) was excised from euthanised mice (n = 3).
The tissues were boiled for 5 h at 60 °C with 70% nitric acid (0.5 mL) , and then boiled again at 60 °C for 10 min with 35% hydrogen peroxide (0.5 mL). The solutions turned yellow, and were diluted as needed to measure the gold content using a Graphite Furnace Atomic Absorption Spectrometer. Before measuring all samples, th e standard solution curves were […]
Hematoxylin and eosin staining. The mice used in the in vivo comparative experiment of 1 and the vehicle control were sacrificed at day 16 post tumo ur cells (4T1) injection. The tissues (liver, kidney, and tumour) were fixed in freshly prepared paraformaldehyde (4% in PBS) for 24 h and processed for paraffin sectioning. Tissue sections of 5 µm were stained with hematoxylin and eosin and used for histological examination. A total of 3 sections per tissue (spanning the full depth of the tissue) were examined and photographed using a Nikon

Series [6] can be described thus: Water-octanol partition coefficient (shake-flask, UV-vis). The conditions noted are these: room temperature 24 h. In kind it is physicochemical. As to the method:
Measurement of water-octanol partition coefficient (LogP). The LogP values for 1-8 were determined using the shake-flask method and UV-vis spectroscopy. The 1-octanol used in this experiment was pre-saturated with water. An aqueous solution of 1-8 (500 μL, 100 μM) was incubated with 1-octanol (500 μL) in a 1.5 mL tube. The tube was shaken at room temperature for 24 h. The two phases were separated by centrifugation and the 1-8 content in each phase was determined by UV-vis spectroscopy. […]

On to `COc1ccc2c(c1)c(CC(=O)[O][Au][PH](c1ccccc1)(c1ccccc1)c1ccccc1)c(C)n2C(=O)c1ccc(Cl)cc1` [complex 1], for which the IC50 was 1.92 ± 0.23 µM in series [1], 3.94 ± 0.3 µM in series [2], 0.056 ± 0.001 µM in series [3] and 2.24 ± 0.11 µM in series [4]. For the same compound, in series [5], the “gold content in the kidney” value is given as 15 μg g^−1 of tissue. Also, in series [5], the “gold content in tumour tissue” value is 3 μg g^−1 of tissue. The compound also had a LogP value in series [6] of 1.64 ± 0.42.

What is called IC50 is the midpoint of a concentration-inhibition curve. High values mean weaker potency in that assay, low ones greater potency in that assay.
